# Experiments:
# [1] = biological target: T1, R. capsulatus FDH (RcFDH), metal-containing formate dehydrogenase (Rhodobacter capsulatus, UniProt D5AQH0); test: inhibition of the back reaction (CO2 reduction) at […] CS2, […] nm; assay type: biochemical
# T1 construct: gene fdhA
# [2] = biological target: T1, R. capsulatus FDH (RcFDH), metal-containing formate dehydrogenase; test: steady-state inhibition kinetics of formate oxidation, benzyl viologen as electron acceptor, […] nm; assay type: biochemical
# purified protein [3] = substrate: O=CO; test: purified protein; assay type: biochemical, Rhodobacter capsulatus; conditions: bis-MGD molybdenum cofactor, [4Fe-4S] cluster; NAD+ active site, molybdenum centre
# purified protein [4] = substrate: O=CS; test: purified protein; assay type: biochemical, Rhodobacter capsulatus; conditions: bis-MGD molybdenum cofactor, [4Fe-4S] cluster; NAD+
# T1 sequence (D5AQH1 1-500 partner, one chain of several): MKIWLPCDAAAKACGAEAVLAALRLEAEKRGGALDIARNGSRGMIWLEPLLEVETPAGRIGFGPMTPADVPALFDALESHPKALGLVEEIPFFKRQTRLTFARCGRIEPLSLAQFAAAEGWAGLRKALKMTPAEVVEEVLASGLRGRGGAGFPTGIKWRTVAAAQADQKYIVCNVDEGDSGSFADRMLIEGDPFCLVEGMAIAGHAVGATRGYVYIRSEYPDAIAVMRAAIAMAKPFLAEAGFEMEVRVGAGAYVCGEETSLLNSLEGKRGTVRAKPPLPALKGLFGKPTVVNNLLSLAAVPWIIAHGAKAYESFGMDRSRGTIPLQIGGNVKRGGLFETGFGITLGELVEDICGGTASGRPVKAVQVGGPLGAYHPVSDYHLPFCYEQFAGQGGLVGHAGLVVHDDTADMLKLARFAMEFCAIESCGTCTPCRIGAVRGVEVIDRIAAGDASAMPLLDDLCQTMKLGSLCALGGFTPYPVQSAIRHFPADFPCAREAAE
# T1 sequence (D5AQH2 1-150 partner, one chain of several): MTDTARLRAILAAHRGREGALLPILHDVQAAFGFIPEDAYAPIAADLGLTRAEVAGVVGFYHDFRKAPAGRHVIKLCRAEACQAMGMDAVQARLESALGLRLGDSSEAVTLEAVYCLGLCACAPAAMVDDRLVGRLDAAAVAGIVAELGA
# T1 sequence (D5AQG8 1-71 partner, one chain of several): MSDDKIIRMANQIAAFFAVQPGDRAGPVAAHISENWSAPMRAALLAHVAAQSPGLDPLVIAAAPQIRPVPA
molecule,measurement,setting,value
S=C=S [carbon disulfide],"inhibition of the back reaction (CO2 reduction) at 150 mM CS2, 340 nm",[1],"interfere with the active site and/or the hydrophobic channel and, therefore, inhibits the reduction in CO2 when present"
S=CS [dithioformate],Ki,[2],7.5 mM
"R. capsulatus FDH (RcFDH), metal-containing formate dehydrogenase (Rhodobacter capsulatus SB 1003) (protein) MKDLIIPPLDWTQDMGTPKREGAPVHLTIDGVEVTVPAGTSVLRAAAEAGISIPKLCATDNVEPVGSCRLCMVEIEGMRGTPTSCTTPVAPGMRVHTQTPQLQKLRRGVMELYISDHPLDCLTCAANGDCELQDMAGAVGLREVRYQAKDTHFARRDATGPNPRYIPKDNSNPYFSYDPAKCIVCMRCVRACEEVQGTFALTVMGRGFDARISPAAPDFLSSDCVSCGACVQACPTATLVEKSVERIGTPERKVVTTCAYCGVGCSFEAHMLGDQLVRMVPWKGGAANRGHSCVKGRFAYGYATHQDRILKPMIRDKITDPWREVNWTEALDFTATRLRALRDSHGADALGVITSSRCTNEETYLVQKLARAVFGTNNTDTCARVCHSPTGYGLKQTFGTSAGTQDFDSVEETDLALVIGANPTDGHPVFASRLRKRLRAGAKLIVVDPRRIDLLNTPHRGEAWHLQLKPGTNVAVMTAMAHVIVTEQIFDKRFIGDRCDWDEWADYAEFVANPEYAPEAVESLTGVPAGLLRQAARAYAAAPNAAIYYGLGVTEHSQGSTTVIAIANLAMMTGNIGRPGVGVNPLRGQNNVQGSCDMGSFPHEFPGYRHVSDDATRGLFERTWGVTLSSEPGLRIPNMLDAAVEGRFKALYVQGEDILQSDPDTRHVSAGLAAMDLVIVHDLFLNETANYAHVFLPGSTFLEKDGTFTNAERRINRVRRVMAPKAGFADWEVTQMLANALGAGWHYTHPSEIMAEIAATTPGFAAVTYEMLDARGSVQWPCNEKAPEGSPIMHVEGFVRGKGRFIRTAYLPTDEKTGPRFPLLLTTGRILSQYNVGAQTRRTENTVWHGEDRLEIHPTDAETRGIRDGDWVRLASRAGETTLRATVTDRVSPGVVYTTFHHPDTQANVVTTDTSDWATNCPEYKVTAVQVAASNGPSDWQQDYAAQAAAARRIEAAE",Km,purified protein [3],145 ± 25 µM
same,Km,purified protein [4],3300 ± 240 µM

# Source: paper PMC9962302, “The Mechanism of Metal-Containing Formate Dehydrogenases Revisited: The Formation of Bicarbonate as Product Intermediate Provides Evidence for an Oxygen Atom Transfer Mechanism” (Molecules, 2023)
